Here are results for 15 compounds from US11339130B1 (Blade Therapeutics, Inc., priority 2016, dated 2022).

Read-outs that look alike come from different tables or passages of the source.

What all share (type): biochemical
The target of one assay is T1, Human Calpain 1/NS1 (Homo sapiens, UniProt P07384).
T1 sequence (P07384 1-714): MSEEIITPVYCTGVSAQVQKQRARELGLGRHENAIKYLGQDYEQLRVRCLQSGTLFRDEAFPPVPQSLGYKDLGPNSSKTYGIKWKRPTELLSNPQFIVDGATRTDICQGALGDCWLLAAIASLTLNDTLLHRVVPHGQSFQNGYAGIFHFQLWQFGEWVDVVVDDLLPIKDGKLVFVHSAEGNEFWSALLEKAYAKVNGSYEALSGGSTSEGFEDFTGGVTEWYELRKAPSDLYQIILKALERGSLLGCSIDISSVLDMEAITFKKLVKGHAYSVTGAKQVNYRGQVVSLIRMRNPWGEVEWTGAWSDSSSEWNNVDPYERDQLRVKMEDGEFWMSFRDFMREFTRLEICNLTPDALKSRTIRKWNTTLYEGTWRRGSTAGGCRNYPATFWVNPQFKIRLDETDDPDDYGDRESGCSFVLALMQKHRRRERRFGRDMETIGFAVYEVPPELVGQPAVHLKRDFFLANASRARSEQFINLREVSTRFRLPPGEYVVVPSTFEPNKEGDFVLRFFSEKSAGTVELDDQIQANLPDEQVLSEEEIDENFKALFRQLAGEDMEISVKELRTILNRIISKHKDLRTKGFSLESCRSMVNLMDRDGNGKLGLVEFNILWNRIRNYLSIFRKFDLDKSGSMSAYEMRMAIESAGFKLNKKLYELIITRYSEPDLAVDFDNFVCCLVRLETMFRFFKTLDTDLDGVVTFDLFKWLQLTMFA
T1 sequence (P04632 1-268 partner): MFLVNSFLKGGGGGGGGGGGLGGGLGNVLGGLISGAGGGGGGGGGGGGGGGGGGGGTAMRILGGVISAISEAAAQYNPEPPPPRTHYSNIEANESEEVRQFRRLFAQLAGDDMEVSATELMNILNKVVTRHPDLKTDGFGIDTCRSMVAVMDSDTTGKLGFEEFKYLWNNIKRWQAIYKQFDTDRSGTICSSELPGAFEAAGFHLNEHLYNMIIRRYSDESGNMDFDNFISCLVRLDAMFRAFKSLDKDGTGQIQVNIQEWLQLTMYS
As to the kind of experiment: Calpain inhibition continuous fluorescence (FRET) assay, Human Calpain 1/NS1. Conditions: read-out: Human Calpain 1/NS1 IC50. In short, it runs like this:
(§1)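 Continuous FRET read (ex 490/em 520 nm, 10 min) of calpain 1, 2 or 9 cleaving an internally quenched 5-FAM peptide, triggered by substrate with CaCl2 after enzyme–inhibitor incubation at ambient 25 °C, pH 7.5 Tris/NaCl/DTT buffer. IC50 from initial rates (1-5 min) via 4-parameter fit.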

For the next assay, the target named is T2, Human Calpain 2/NS1 (Homo sapiens, UniProt P17655).
T2 sequence (P17655 1-700): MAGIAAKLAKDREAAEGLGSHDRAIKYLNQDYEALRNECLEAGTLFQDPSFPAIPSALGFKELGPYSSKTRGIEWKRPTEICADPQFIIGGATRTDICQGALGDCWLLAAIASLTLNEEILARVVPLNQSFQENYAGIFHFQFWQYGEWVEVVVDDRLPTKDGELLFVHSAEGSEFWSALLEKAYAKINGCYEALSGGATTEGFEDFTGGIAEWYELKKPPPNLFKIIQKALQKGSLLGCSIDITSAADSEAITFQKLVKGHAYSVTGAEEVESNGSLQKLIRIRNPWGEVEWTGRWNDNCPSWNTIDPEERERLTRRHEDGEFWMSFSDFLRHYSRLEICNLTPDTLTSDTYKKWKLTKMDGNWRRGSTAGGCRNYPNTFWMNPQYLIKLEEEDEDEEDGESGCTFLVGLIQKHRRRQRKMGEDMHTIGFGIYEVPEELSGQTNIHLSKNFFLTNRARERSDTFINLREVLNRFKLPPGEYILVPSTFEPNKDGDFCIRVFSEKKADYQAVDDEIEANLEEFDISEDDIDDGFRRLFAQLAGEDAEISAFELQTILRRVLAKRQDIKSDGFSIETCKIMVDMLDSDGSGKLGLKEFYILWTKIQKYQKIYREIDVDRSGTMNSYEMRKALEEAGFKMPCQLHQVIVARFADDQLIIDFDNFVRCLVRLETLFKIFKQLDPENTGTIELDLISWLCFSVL
T2 sequence (P04632 1-268 partner): T1 sequence (P04632 1-268 partner)
The assay can be described thus: Calpain inhibition continuous fluorescence (FRET) assay, Human Calpain 2/NS1. The note with it: read-out: Human Calpain 2/NS1 IC50. The method in brief: as §1

A further assay deals with T3, Human Calpain 9/NS1 (Homo sapiens, UniProt O14815).
T3 sequence (O14815 1-690): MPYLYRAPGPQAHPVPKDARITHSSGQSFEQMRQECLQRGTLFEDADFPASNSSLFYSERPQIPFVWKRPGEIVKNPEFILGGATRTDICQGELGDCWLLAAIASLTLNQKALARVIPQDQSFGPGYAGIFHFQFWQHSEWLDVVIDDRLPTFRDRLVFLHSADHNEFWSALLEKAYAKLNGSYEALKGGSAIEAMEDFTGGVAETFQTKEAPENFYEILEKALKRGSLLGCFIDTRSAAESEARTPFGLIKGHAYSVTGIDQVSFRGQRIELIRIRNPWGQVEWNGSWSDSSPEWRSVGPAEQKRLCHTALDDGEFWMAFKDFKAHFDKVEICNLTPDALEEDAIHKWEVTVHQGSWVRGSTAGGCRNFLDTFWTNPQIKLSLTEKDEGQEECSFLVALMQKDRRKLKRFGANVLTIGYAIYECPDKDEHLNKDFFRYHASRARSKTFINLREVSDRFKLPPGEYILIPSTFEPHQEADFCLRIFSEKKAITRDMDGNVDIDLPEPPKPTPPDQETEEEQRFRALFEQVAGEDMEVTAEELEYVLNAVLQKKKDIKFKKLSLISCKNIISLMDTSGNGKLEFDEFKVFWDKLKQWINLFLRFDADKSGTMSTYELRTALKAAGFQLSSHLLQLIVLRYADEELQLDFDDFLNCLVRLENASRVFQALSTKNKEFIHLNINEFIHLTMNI
T3 sequence (P04632 1-268 partner): T1 sequence (P04632 1-268 partner)
The assay can be described thus: Calpain inhibition continuous fluorescence (FRET) assay, Human Calpain 9/NS1. Conditions: read-out: Human Calpain 9/NS1 IC50. In short, it runs like this:
as §1

For `NC(=O)C(=O)C(Cc1ccccc1)NC(=O)c1c(C(F)(F)F)cnn1-c1ncccn1` (stereo not drawn) [Compound 410, N-(4-amino-3,4-dioxo-1-phenylbutan-2-yl)-1-(pyrimidin-2-yl)-4-(trifluoromethyl)-1H-pyrazole-5-carboxamide], the IC50 at Human Calpain 1/NS1, at Human Calpain 2/NS1 and at Human Calpain 9/NS1 was 3 to 10 µM in each case.

`Cc1noc(-c2ccc3c(c2)OCO3)c1C(=O)N[C@@H](Cc1ccccc1)C(=O)C(N)=O` [Compound 20, (S)—N-(4-amino-3,4-dioxo-1-phenylbutan-2-yl)-5-(benzo[D][1,3]dioxol-5-yl)-3-methylisoxazole-4-carboxamide]: the IC50 at Human Calpain 1/NS1 (Column A), at Human Calpain 2/NS1 (Column B) and on Human Calpain 9/NS1 (Column C) was less than 3 µM each time.

In the case of `O=C[C@H](Cc1ccccc1)NC(=O)c1cncn1-c1ccn(-c2ccccc2)n1` [Compound 34, (S)—N-(1-oxo-3-phenylpropan-2-yl)-1-(1-phenyl-1H-pyrazol-3-yl)-1H-imidazole-5-carboxamide], the IC50 at Human Calpain 1/NS1 (Column A), on Human Calpain 2/NS1 (Column B) and on Human Calpain 9/NS1 (Column C) was less than 3 µM throughout.

As to `CC(C)(C)c1cc(C(=O)N[C@@H](Cc2ccccc2)C(=O)C(N)=O)n(-c2ccccc2)n1` [Compound 128, (S)—N-(4-amino-3,4-dioxo-1-phenylbutan-2-yl)-3-(tert-butyl)-1-phenyl-1H-pyrazole-5-carboxamide], the values for the IC50 at Human Calpain 1/NS1 (Column A), at Human Calpain 2/NS1 (Column B) and on Human Calpain 9/NS1 (Column C) were 3 to 10 µM, more than 10 µM and 3 to 10 µM, respectively.

For `Cc1nc(C(=O)N[C@@H](Cc2ccccc2)C(=O)C(N)=O)c(-c2ccccc2)[nH]1` [Compound 79, (S)—N-(4-amino-3,4-dioxo-1-phenylbutan-2-yl)-2-methyl-5-phenyl-1H-imidazole-4-carboxamide], the IC50 at Human Calpain 1/NS1 (Column A), on Human Calpain 2/NS1 (Column B) and on Human Calpain 9/NS1 (Column C) was less than 3 µM each time.

`Cc1cc(C(=O)N[C@@H](Cc2ccccc2)C(=O)C(N)=O)n(-c2cccc3ncccc23)n1` [Compound 108, (S)—N-(4-amino-3,4-dioxo-1-phenylbutan-2-yl)-3-methyl-1-(quinolin-5-yl)-1H-pyrazole-5-carboxamide]: the IC50 at Human Calpain 1/NS1 (Column A), at Human Calpain 2/NS1 (Column B) and on Human Calpain 9/NS1 (Column C) was less than 3 µM throughout.

Regarding `Cc1cnc(C(=O)NC(Cc2ccccc2)C(=O)C(N)=O)n1-c1ccccc1` (stereo not drawn) [Compound 490, N-(4-amino-3,4-dioxo-1-phenylbutan-2-yl)-5-methyl-1-phenyl-1H-imidazole-2-carboxamide], the IC50 was more than 10 µM on Human Calpain 1/NS1, 3 to 10 µM at Human Calpain 2/NS1 and less than 3 µM on Human Calpain 9/NS1.

`Cc1cc(C(=O)N[C@@H](Cc2ccccc2)C(=O)C(N)=O)nn1-c1ncc(-c2ccccc2)s1` [Compound 115, (S)—N-(4-amino-3,4-dioxo-1-phenylbutan-2-yl)-5-methyl-1-(5-phenylthiazol-2-yl)-1H-pyrazole-3-carboxamide]: the IC50 on Human Calpain 1/NS1 (Column A) was more than 10 µM; on Human Calpain 2/NS1 (Column B) it was less than 3 µM; at Human Calpain 9/NS1 (Column C), more than 10 µM.

`COc1ccc2nc(-n3nc(C)cc3C(=O)N[C@@H](Cc3ccccc3)C(=O)C(N)=O)sc2c1` [Compound 297, (S)—N-(4-amino-3,4-dioxo-1-phenylbutan-2-yl)-1-(6-methoxybenzo[d]thiazol-2-yl)-3-methyl-1H-pyrazole-5-carboxamide]: the IC50 at Human Calpain 1/NS1 (Column A) is more than 10 µM; at Human Calpain 2/NS1 (Column B), 3 to 10 µM; on Human Calpain 9/NS1 (Column C), less than 3 µM.

Regarding `NC(=O)C(=O)[C@H](Cc1ccccc1)NC(=O)c1cncn1-c1ncc(-c2ccccc2)cn1` [Compound 74, (S)—N-(4-amino-3,4-dioxo-1-phenylbutan-2-yl)-1-(5-phenylpyrimidin-2-yl)-1H-imidazole-5-carboxamide], the IC50 on Human Calpain 1/NS1 (Column A), at Human Calpain 2/NS1 (Column B) and at Human Calpain 9/NS1 (Column C) was less than 3 µM throughout.

`O=C(NC1CC1)C(=O)[C@H](Cc1ccccc1)NC(=O)c1cncn1-c1n[nH]c2ccccc12` [Compound 51, (S)—N-(4-(cyclopropylamino)-3,4-dioxo-1-phenylbutan-2-yl)-1-(1H-indazol-3-yl)-1H-imidazole-5-carboxamide]: the figures for the IC50 at Human Calpain 1/NS1 (Column A), on Human Calpain 2/NS1 (Column B) and at Human Calpain 9/NS1 (Column C) were 3 to 10 µM, 3 to 10 µM and more than 10 µM, respectively.

On to `Cc1cc(C(=O)N[C@@H](Cc2ccccc2)C(=O)C(=O)NC2CC2)n(-c2nc3ccccc3n2C)n1` [Compound 295, (S)—N-(4-(cyclopropylamino)-3,4-dioxo-1-phenylbutan-2-yl)-3-methyl-1-(1-methyl-1H-benzo[d]imidazol-2-yl)-1H-pyrazole-5-carboxamide], for which the IC50 on Human Calpain 1/NS1 (Column A), on Human Calpain 2/NS1 (Column B) and on Human Calpain 9/NS1 (Column C) was more than 10 µM each time.

On to `N#Cc1cc(C(=O)N[C@@H](Cc2ccccc2)C(=O)C(N)=O)n(-c2ccccc2)n1` [Compound 272, (S)—N-(4-amino-3,4-dioxo-1-phenylbutan-2-yl)-3-cyano-1-phenyl-1H-pyrazole-5-carboxamide], for which the IC50 is more than 10 µM on Human Calpain 1/NS1 (Column A), 3 to 10 µM at Human Calpain 2/NS1 (Column B) and 3 to 10 µM at Human Calpain 9/NS1 (Column C).

For `O=C[C@H](Cc1ccccc1)NC(=O)[C@@H]1CCCN1c1nc2ccccc2s1` [Compound 3, (S)-1-(benzo[D]thiazol-2-yl)-N—((S)-1-oxo-3-phenylpropan-2-yl)pyrrolidine-2-carboxamide], the IC50 at Human Calpain 1/NS1 (Column A), at Human Calpain 2/NS1 (Column B) and at Human Calpain 9/NS1 (Column C) was less than 3 µM throughout.

In the case of `Cc1noc(-c2ccccc2)c1C(=O)N[C@@H](Cc1ccccc1)C(=O)C(=O)NCc1ccc(S(C)(=O)=O)cc1` [Compound 151, (S)-3-methyl-N-(4-((4-(methylsulfonyl)benzyl)amino)-3,4-dioxo-1-phenylbutan-2-yl)-5-phenylisoxazole-4-carboxamide], the IC50 at Human Calpain 1/NS1 (Column A), at Human Calpain 2/NS1 (Column B) and at Human Calpain 9/NS1 (Column C) was less than 3 µM in each case.
